Source: patent US8119621B2, “Tetrahydro-cyclopentyl pyrazole cannabinoid modulators” (Janssen Pharmaceutica N.V., priority 2005, dated 2012)
Read-outs that look alike come from different tables or passages of the source.

Legend:
[1] = target: T1, human CB1 receptor (Homo sapiens, UniProt P21554); experiment: Binding assay for CB1 agonists or inverse agonists ([3H]-CP-55,940 displacement, SK-N-MC membranes); conditions: for inhibition at 0.25 µM: read-out: CB1 receptor binding percent inhibition
T1 construct: expressed in transfected cells; host or cells: SK-N-MC cells, stably transfected with pcDNA3 CB-1 (human); semi-purified membrane pellet
Experimental: (§1) The human CB1 and CB2 receptors were stably expressed in SK-N-MC cells transfected with pcDNA3 CB-1 (human) or pcDNA3 CB-2 (human). The cells were grown in T-180 cell culture flasks under standard cell culture conditions at 37° C. in a 5% CO2 atmosphere. The cells were harvested by trysinization and homogenized in a homogenization buffer (10 mM Tris, 0.2 mM MgCl2, 5 mM KCl, with protease inhibitors aprotinin, leupeptin, pepstatin A and bacitracin) and centrifuged (2000 g). The supernatant was then centrifuged in 2M sucrose (31,300 g) to produce a semi-purified membrane pellet. The pellet was resuspended in homogenization and stored at −80° C.
(§2) On the day of the assay, the pellet was thawed on ice and diluted in assay buffer (50 mM Tris-HCl, 5 mM MgCl2, 2.5 mM EDTA, 0.5 mg/mL fatty acid free bovine serum albumin, pH 7.5). […] The plate was covered and incubated for 90 minutes at 30° C. The contents were then aspirated onto a Packard Unifilter GF/C filter bottom plate prewet with 0.5% polyethyleneimine. The wells of the polypropylene plate were rinsed and aspirated seven times with a 0.9% saline-0.5% Tween 20 solution. The Unifilter plate was dried, a scintillation cocktail was added to each well and the counts representing binding were quantitated in a TopCount scintillation counter.
(§3) For compounds tested, an IC50 binding value was obtained from percent inhibition studies in which various test concentrations were used. The binding value was calculated by linear regression.

[2] = target: T2, human CB2 receptor (Homo sapiens, UniProt P34972); experiment: Binding assay for CB2 agonists or inverse agonists ([3H]-CP-55,940 displacement, SK-N-MC membranes); conditions: read-out: CB2 receptor binding percent inhibition
T2 construct: expressed in transfected cells; host or cells: SK-N-MC cells, stably transfected with pcDNA3 CB-2 (human); semi-purified membrane pellet
Experimental: as §1, §2, §3

[3] = target: T1, human CB1 receptor; experiment: Functional cell-based assay, CB1 receptor mediated change in CRE β-gal expression (adenylate cyclase activity); conditions: for CB1 Receptor Functional Activity (change in functional activity): one compound concentration, vehicle treated cell = 100%
Text: The CB1 and CB2 receptors are G-protein coupled receptors (GPCR), which influence cell function via the Gi-protein. These receptors modulate the activity of intracellular adenylate cyclase, which in turn produces the intracellular signal messenger cyclic-AMP (cAMP).
At baseline, or during non-ligand bound conditions, these receptors are constitutively active and tonically suppress adenylate cyclase activity. The binding of an agonist causes further receptor activation and produces additional suppression of adenylate cyclase activity. The binding of an inverse agonist inhibits the constitutive activity of the receptors and results in an increase in adenylate cyclase activity.
Test compounds were evaluated in SK-N-MC cells which, using standard transfection procedures, were stably transfected with human cDNA for pcDNA3-CRE β-gal and pcDNA3 CB1 receptor (human) or pcDNA3 CB2 receptor (human). By expressing CRE β-gal, the cells produced β-galactosidase in response to CRE promoter activation by cAMP. Cells expressing CRE β-gal and either the human CB1 or CB2 receptor will produce less β-galactosidase when treated with a CB1/CB2 agonist and will produce more β-galactosidase when treated with a CB1/CB2 inverse agonist.
The cells were grown in 96-well plates under standard cell culture conditions at 37° C. in a 5% CO2 atmosphere. After 3 days, the media was removed and a test compound in media (wherein the media was supplemented with 2 mM L-glutamine, […] sodium pyruvate, 0.1% low fatty acid FBS (fetal bovine serum) and antibiotics) was added to the cell. The plates were incubated for 30 minutes at 37° C. and the plate cells were then treated with forskolin over a 4-6 hour period, then washed and lysed. The β-galactosidase activity was quantitated using commercially available kit reagents (Promega Corp. Madison, Wis.) and a Vmax Plate Reader (Molecular Devices, Inc).
The change in β-galactosidase activity was determined by setting a vehicle treated cell's activity value at 100% and expressing the β-galactosidase activity measured in a corresponding compound treated cell as a percent of the vehicle treated cell activity.
The EC50 value for functional activity for compounds tested was calculated by linear regression and was obtained from studies in which varying compound concentrations were used.
Where an EC50 value was not obtained for a test compound, the value shown (in %) represents change in functional activity and was obtained from a study in which one compound concentration was used.

[4] = test concentration 0.25 μM (footnote 3)
[5] = CB1 Receptor Functional Inverse Agonist EC50, SK-N-MC cells, CRE β-gal, forskolin

T2 sequence (P34972 whole entry): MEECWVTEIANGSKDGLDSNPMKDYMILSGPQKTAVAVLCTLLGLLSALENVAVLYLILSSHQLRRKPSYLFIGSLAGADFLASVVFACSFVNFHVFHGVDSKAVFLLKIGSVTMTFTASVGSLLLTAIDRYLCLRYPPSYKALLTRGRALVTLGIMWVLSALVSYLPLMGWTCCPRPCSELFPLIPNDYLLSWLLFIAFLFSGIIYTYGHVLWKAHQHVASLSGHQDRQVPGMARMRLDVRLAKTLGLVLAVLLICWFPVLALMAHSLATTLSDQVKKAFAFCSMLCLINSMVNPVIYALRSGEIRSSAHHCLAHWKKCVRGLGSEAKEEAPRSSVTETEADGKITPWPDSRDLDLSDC
T1 sequence (P21554 whole entry): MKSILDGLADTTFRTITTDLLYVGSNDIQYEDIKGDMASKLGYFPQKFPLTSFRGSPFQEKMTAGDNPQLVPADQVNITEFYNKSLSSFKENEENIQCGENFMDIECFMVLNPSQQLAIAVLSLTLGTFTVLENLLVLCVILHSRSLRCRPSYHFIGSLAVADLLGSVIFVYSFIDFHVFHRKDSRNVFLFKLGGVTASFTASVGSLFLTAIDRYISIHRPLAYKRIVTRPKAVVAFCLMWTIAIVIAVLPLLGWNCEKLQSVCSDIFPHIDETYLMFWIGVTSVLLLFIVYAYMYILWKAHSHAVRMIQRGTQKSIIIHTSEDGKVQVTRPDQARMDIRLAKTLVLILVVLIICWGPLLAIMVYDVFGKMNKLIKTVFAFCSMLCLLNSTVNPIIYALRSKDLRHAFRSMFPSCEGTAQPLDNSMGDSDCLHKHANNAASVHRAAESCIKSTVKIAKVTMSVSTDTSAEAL

Row | SMILES | inhibition at 0.25 µM [1, 4] [%] | inhibition at 0.25 µM [2, 4] [%] | EC50 [3, 5] [nM] | EC50 [3] [nM] | CB1 Receptor Functional Activity (change in functional activity) [3] [%] | inhibition at 0.25 µM [1] [%] | inhibition at 0.25 µM [2] [%] | IC50 [1] [nM]
1 | C[C@@H](NS(=O)(=O)/C=C/c1nn(-c2ccc(F)cc2F)c2c1CCC2Cc1cccc(F)c1)C1CCCCC1 (stereo partly drawn) [Cpd 5, (2E)-2-[1-(2,4-difluoro-phenyl)-6-(3-fluoro-benzyl)-1,4,5,6-tetrahydro-cyclopentapyrazol-3-yl]-ethenesulfonic acid [(1R)-1-cyclohexyl-ethyl]-amide] | 44 | 4 | 200 |  |  |  |  | 
2 | O=C(NN1CCCCC1)c1nn(-c2ccc(F)cc2F)c2c1CCC2Cc1cccc(F)c1 (stereo not shown) [Cpd 6, 1-(2,4-difluoro-phenyl)-6-(3-fluoro-benzyl)-1,4,5,6-tetrahydro-cyclopentapyrazole-3-carboxylic acid piperidin-1-ylamide] | 4 | 12 |  | 200 |  |  |  | 
3 | O=C(c1nn(-c2ccc(F)cc2F)c2c1CCC2Cc1cccc(F)c1)N1CCCCC1 (stereo not shown) [Cpd 8, [1-(2,4-difluoro-phenyl)-6-(3-fluoro-benzyl)-1,4,5,6-tetrahydro-cyclopentapyrazol-3-yl]-piperidin-1-yl-methanone] | 6 | 0 |  |  | 21 |  |  | 
4 | CCOC(=O)[C@H]1C2CCC(C2)[C@H]1NC(=O)c1nn(-c2ccc(F)cc2F)c2c1CCC2Cc1cccc(F)c1 (stereo partly drawn) [Cpd 13, (2S,3R)-3-{[1-(2,4-difluoro-phenyl)-6-(3-fluoro-benzyl)-1,4,5,6-tetrahydro-cyclopentapyrazole-3-carbonyl]-amino}-bicyclo[2.2.1]heptane-2-carboxylic acid ethyl ester] | 58 | 44 |  |  | 24 |  |  | 
5 | COC(=O)[C@@H](Cc1ccc(F)cc1)NC(=O)c1nn(-c2ccc(F)cc2F)c2c1CCC2Cc1cccc(F)c1 (stereo partly drawn) [Cpd 14, (2R)-2-{[1-(2,4-difluoro-phenyl)-6-(3-fluoro-benzyl)-1,4,5,6-tetrahydro-cyclopentapyrazole-3-carbonyl]-amino}-3-(4-fluoro-phenyl)-propionic acid methyl ester] | 50 | 30 |  |  | 48 |  |  | 
6 | COC(=O)[C@@H](Cc1ccc(O)cc1)NC(=O)c1nn(-c2ccc(F)cc2F)c2c1CCC2Cc1cccc(F)c1 (stereo partly drawn) [Cpd 15, (2R)-2-{[1-(2,4-difluoro-phenyl)-6-(3-fluoro-benzyl)-1,4,5,6-tetrahydro-cyclopentapyrazole-3-carbonyl]-amino}-3-(4-hydroxy-phenyl)-propionic acid methyl ester] | 54 | 50 |  |  | −15 |  |  | 
7 | O=C(NCc1ccccc1)c1nn(-c2ccc(F)cc2F)c2c1CCC2Cc1cccc(F)c1 (stereo not shown) [Cpd 16, 1-(2,4-difluoro-phenyl)-6-(3-fluoro-benzyl)-1,4,5,6-tetrahydro-cyclopentapyrazole-3-carboxylic acid benzylamide] |  | 0 | 400 |  |  | 26 |  | 
8 | C[C@H](NC(=O)c1nn(-c2ccc(F)cc2F)c2c1CCC2Cc1cccc(F)c1)c1ccccc1 (stereo partly drawn) [Cpd 18, 1-(2,4-difluoro-phenyl)-6-(3-fluoro-benzyl)-1,4,5,6-tetrahydro-cyclopentapyrazole-3-carboxylic acid [(1S)-1-phenyl-ethyl]-amide] | 66 | 19 |  | 10000 |  |  |  | 
9 | C[C@@H](NC(=O)c1nn(-c2ccc(F)cc2F)c2c1CCC2Cc1cccc(F)c1)c1ccccc1 (stereo partly drawn) [Cpd 19, 1-(2,4-difluoro-phenyl)-6-(3-fluoro-benzyl)-1,4,5,6-tetrahydro-cyclopentapyrazole-3-carboxylic acid [(1R)-1-phenyl-ethyl]-amide] | 52 | 26 |  | 200 |  |  |  | 
10 | C[C@H](NC(=O)c1nn(-c2ccc(F)cc2F)c2c1CCC2Cc1cccc(F)c1)C1CCCCC1 (stereo partly drawn) [Cpd 20, 1-(2,4-difluoro-phenyl)-6-(3-fluoro-benzyl)-1,4,5,6-tetrahydro-cyclopentapyrazole-3-carboxylic acid [(1S)-1-cyclohexyl-ethyl]-amide] |  |  |  |  | 37 | 70 | 44 | 
11 | C[C@@H](NC(=O)c1nn(-c2ccc(F)cc2F)c2c1CCC2Cc1cccc(F)c1)C1CCCCC1 (stereo partly drawn) [Cpd 21, 1-(2,4-difluoro-phenyl)-6-(3-fluoro-benzyl)-1,4,5,6-tetrahydro-cyclopentapyrazole-3-carboxylic acid [(1R)-1-cyclohexyl-ethyl]-amide] |  |  | 40 |  |  | 67 | 61 | 80
